# Experimental data as given in US20080299186A1, “COATINGS FOR APPLYING SUBSTANCES ONTO SUBSTRATE CARRIER” (Schering-Plough Healthcare Products, Inc., priority 2007, published 2008).
# Where a name gives a salt, the structure may show the parent alone.
# Experiment: Phenylephrine HCl stability study: chemical compatibility with film forming polymers and plasticizers, HPLC degradation products
# Format: physicochemical
# Method: Methods: Chemical compatibility of Phenylephrine HCl with various film forming polymers or polymer blends and plasticizers (Table 2) was conducted. […] Two additional formulations (C and F) were used as controls. Sample C contained Phenylephrine HCl dissolved in water without any additional cellulosic or non-cellulosic polymers. Sample F comprised phenylephrine HCl in the absence of water. Both controls were subjected to the same drying conditions as the other example films prior to analysis.
# Aliquots from the bulk coating dispersion equivalent to approximately 10 unit doses of the active were poured into flat, 4-6″ plastic weight boats and allowed to dry overnight for approximately 15-16 hours at 40C under vacuum. The amount per film equivalent to 10 unit doses was chosen for achieving reproducible and reliable analytical results for the Phenylephrine HCl degradants. […] These dried film samples were then stored at 50C in closed amber jars for 14 days. Each film was then analyzed by HPLC for the presence of degradation products. Separation of Phenylephrine HCl degradation products was accomplished on an HPLC using a Prontosil EPS C18, 100×4.6 mm (3 μparticle size) column manufactured by Bischoff Chromatography and using a gradient test method. Detection was by UV at 215 nm. The column was thermostated at 25° C. and an injection volume of 10 μL of sample solution was used. […]
SMILES,residual water after drying (after drying of the film sample),"total PE degradation, result in words (compared with controls) (stored at 50C in closed amber jars for 14 days)"
"CNC[C@H](O)c1cccc(O)c1 [C, Phenylephrine HCl]",10-15%,
"CNC[C@H](O)c1cccc(O)c1 [F, Phenylephrine HCl]",,no appreciable degradation occurred
